From PubChem BioAssay AID1745844 (Carcinogenic Potency Database (CPDB), 2022)
Activity calls are given as the source filed them. How the calls were made is not given here.

Tested on: rodent lifetime carcinogenesis bioassay, tumor incidence TD50
Assay: chronic cancer bioassays in animals – CPDB, compiled studies (AID 1745844)
[1] = rat, strain Fischer 344, females, by gavage, site: liver, lesion: hepatocellular adenoma + hepatocellular carcinoma + neoplastic nodule, dosed 103 weeks, study length 104 weeks
[2] = rat, strain Fischer 344, males, by gavage, site: any site (literature study), lesion: several types, types named in the paper, dosed 103 weeks, study length 104 weeks
[3] = rat, strain Fischer 344, males, by gavage, site: liver, lesion: hepatocellular adenoma + hepatocellular carcinoma + neoplastic nodule, dosed 103 weeks, study length 104 weeks

## Brc1cc(-c2ccc(Br)c(Br)c2Br)cc(Br)c1Br
rat, strain Sprague-Dawley Spartan, females, in feed, site: any site (literature study), lesion: several types, types named in the paper, dosed 57 weeks, study length 57 weeks
  TD50: 5.91 mg/kg/day (inactive)
rat, strain Sprague-Dawley Spartan, females, in feed, site: liver, lesion: one or several types, types not named, dosed 57 weeks, study length 57 weeks
  carcinogen call: negative (inactive)

## O=C1c2ccccc2C(=O)c2c(O)cccc21
rat, strain ACI/n, males, in feed, site: cecum, lesion: adenocarcinoma, dosed 68 weeks, study length 68 weeks
  TD50: 619 mg/kg/day
rat, strain ACI/n, males, in feed, site: cecum, lesion: adenoma, dosed 68 weeks, study length 68 weeks
  TD50: 277 mg/kg/day
rat, strain ACI/n, males, in feed, site: colon, lesion: adenocarcinoma, dosed 68 weeks, study length 68 weeks
  TD50: 246 mg/kg/day
rat, strain ACI/n, males, in feed, site: colon, lesion: adenoma, dosed 68 weeks, study length 68 weeks
  TD50: 219 mg/kg/day
rat, strain ACI/n, males, in feed, site: forestomach, lesion: papilloma, dosed 68 weeks, study length 68 weeks
  TD50: 789 mg/kg/day
rat, strain ACI/n, males, in feed, site: large intestine, lesion: several types, types named in the paper, dosed 68 weeks, study length 68 weeks
  TD50: 59.2 mg/kg/day
rat, strain ACI/n, males, in feed, site: liver, lesion: hepatocellular carcinoma, dosed 68 weeks, study length 68 weeks
  TD50: 789 mg/kg/day
rat, strain ACI/n, males, in feed, site: liver, lesion: neoplastic nodule, dosed 68 weeks, study length 68 weeks
  TD50: 219 mg/kg/day
rat, strain ACI/n, males, in feed, site: liver, lesion: several types, types named in the paper, dosed 68 weeks, study length 68 weeks
  TD50: 219 mg/kg/day
rat, strain ACI/n, males, in feed, site: stomach, glandular, lesion: adenoma, dosed 68 weeks, study length 68 weeks
  TD50: 3340 mg/kg/day
rat, strain ACI/n, males, in feed, site: stomach, lesion: several types, types named in the paper, dosed 68 weeks, study length 68 weeks
  TD50: 619 mg/kg/day
rat, strain Fischer 344, males, in feed, site: cecum, lesion: adenocarcinoma, dosed 78 weeks, study length 78 weeks
  TD50: 432 mg/kg/day
rat, strain Fischer 344, males, in feed, site: colon, lesion: adenocarcinoma, dosed 78 weeks, study length 78 weeks
  TD50: 432 mg/kg/day
rat, strain Fischer 344, males, in feed, site: colon, lesion: several types, types named in the paper, dosed 78 weeks, study length 78 weeks
  TD50: 432 mg/kg/day
rat, strain Fischer 344, males, in feed, site: large intestine, lesion: several types, types named in the paper, dosed 78 weeks, study length 78 weeks
  TD50: 222 mg/kg/day

## CCCCCCCCCCC(C)c1ccc(S(=O)(=O)O)cc1 (stereo not drawn)
rat, strain Slc-Wistar, females, in feed, site: preputial gland, lesion: several types, types named in the paper, dosed 142 weeks, study length 148 weeks
  carcinogen call: negative (inactive)
rat, strain Slc-Wistar, males, in feed, site: preputial gland, lesion: several types, types named in the paper, dosed 127 weeks, study length 139 weeks
  carcinogen call: negative (inactive)

## Oc1ccc2c(c1)OCO2
mouse, strain B6C3F1, females, in feed, site: forestomach, lesion: sarcoma, dosed 96 weeks, study length 96 weeks
  TD50: 44800 mg/kg/day
mouse, strain B6C3F1, females, in feed, site: forestomach, lesion: squamous-cell carcinoma, dosed 96 weeks, study length 96 weeks
  TD50: 8330 mg/kg/day
mouse, strain B6C3F1, females, in feed, site: liver, lesion: hyperplastic nodule, dosed 96 weeks, study length 96 weeks
  TD50: 44800 mg/kg/day
mouse, strain B6C3F1, males, in feed, site: forestomach, lesion: squamous-cell carcinoma, dosed 96 weeks, study length 96 weeks
  TD50: 3070 mg/kg/day
mouse, strain B6C3F1, males, in feed, site: lung, lesion: adenoma, dosed 96 weeks, study length 96 weeks
  TD50: 41300 mg/kg/day
mouse, strain B6C3F1, males, in feed, site: stomach, glandular, lesion: sarcoma, dosed 96 weeks, study length 96 weeks
  TD50: 41300 mg/kg/day
rat, strain F344/DuCrj, females, in feed, site: forestomach, lesion: papilloma, dosed 104 weeks, study length 104 weeks
  TD50: 1090 mg/kg/day
rat, strain F344/DuCrj, females, in feed, site: forestomach, lesion: squamous-cell carcinoma, dosed 104 weeks, study length 104 weeks
  TD50: 6500 mg/kg/day
rat, strain F344/DuCrj, males, in feed, site: forestomach, lesion: papilloma, dosed 104 weeks, study length 104 weeks
  TD50: 1350 mg/kg/day
rat, strain F344/DuCrj, males, in feed, site: forestomach, lesion: several types, types named in the paper, dosed 60 weeks, study length 60 weeks
  TD50: 708 mg/kg/day
rat, strain F344/DuCrj, males, in feed, site: forestomach, lesion: squamous-cell carcinoma, dosed 60 weeks, study length 60 weeks
  TD50: 3920 mg/kg/day
rat, strain F344/DuCrj, males, in feed, site: forestomach, lesion: squamous-cell carcinoma, dosed 104 weeks, study length 104 weeks
  TD50: 1540 mg/kg/day
rat, strain F344/DuCrj, males, in feed, site: forestomach, lesion: squamous-cell papilloma, dosed 60 weeks, study length 60 weeks
  TD50: 909 mg/kg/day
rat, strain F344/DuCrj, males, in feed, site: stomach, glandular, lesion: adenoma, dosed 104 weeks, study length 104 weeks
  TD50: 16200 mg/kg/day

## O=NN(c1ccccc1)c1ccccc1
mouse, strain B6AKF1, females, oral dosing, site: any site (literature study), lesion: several types, types named in the paper, dosed 76 weeks, study length 76 weeks
  TD50: 3260 mg/kg/day
mouse, strain B6AKF1, females, oral dosing, site: lung, lesion: adenoma, dosed 76 weeks, study length 76 weeks
  TD50: 1020 mg/kg/day
mouse, strain B6C3F1, females, in feed, site: any site (literature study), lesion: several types, types named in the paper, dosed 98 weeks, study length 101 weeks
  carcinogen call: negative (inactive)
mouse, strain B6C3F1, males, in feed, site: any site (literature study), lesion: several types, types named in the paper, dosed 101 weeks, study length 101 weeks
  carcinogen call: negative (inactive)
mouse, strain B6C3F1, males, oral dosing, site: any site (literature study), lesion: several types, types named in the paper, dosed 76 weeks, study length 76 weeks
  TD50: 897 mg/kg/day
mouse, strain B6C3F1, males, oral dosing, site: liver, lesion: hepatoma, dosed 76 weeks, study length 76 weeks
  TD50: 385 mg/kg/day
mouse, strain B6C3F1, males, oral dosing, site: lung, lesion: adenoma, dosed 76 weeks, study length 76 weeks
  TD50: 9670 mg/kg/day
rat, strain CB, males, i.p., site: liver, lesion: hepatoma, dosed 26 weeks, study length 100 weeks
  TD50: 18.9 mg/kg/day (inactive)
rat, strain Fischer 344, females, in feed, site: any site (literature study), lesion: several types, types named in the paper, dosed 100 weeks, study length 100 weeks
  TD50: 159 mg/kg/day
rat, strain Fischer 344, females, in feed, site: urinary bladder, lesion: transitional-cell carcinoma, dosed 100 weeks, study length 100 weeks
  TD50: 116 mg/kg/day
rat, strain Fischer 344, males, in feed, site: all sites, lesion: fibroma, dosed 100 weeks, study length 100 weeks
  TD50: 537 mg/kg/day
rat, strain Fischer 344, males, in feed, site: any site (literature study), lesion: several types, types named in the paper, dosed 100 weeks, study length 100 weeks
  TD50: 136000 mg/kg/day
rat, strain Fischer 344, males, in feed, site: liver, lesion: hepatocellular adenoma + hepatocellular carcinoma + neoplastic nodule, dosed 100 weeks, study length 100 weeks
  TD50: 5450 mg/kg/day
rat, strain Fischer 344, males, in feed, site: urinary bladder, lesion: transitional-cell carcinoma, dosed 100 weeks, study length 100 weeks
  TD50: 299 mg/kg/day

## C=C(C)C
mouse, strain B6C3F1, females, inhaled, site: any site (literature study), lesion: several types, types named in the paper, dosed 105 weeks, study length 105 weeks
  carcinogen call: negative (inactive)
mouse, strain B6C3F1, females, inhaled, site: liver, lesion: hepatocellular adenoma + hepatoblastoma + hepatocellular carcinoma, dosed 105 weeks, study length 105 weeks
  TD50: 47800 mg/kg/day
mouse, strain B6C3F1, males, inhaled, site: any site (literature study), lesion: several types, types named in the paper, dosed 104 weeks, study length 104 weeks
  TD50: 8840 mg/kg/day (inactive)
rat, strain Fischer 344, females, inhaled, site: any site (literature study), lesion: several types, types named in the paper, dosed 104 weeks, study length 104 weeks
  carcinogen call: negative (inactive)
rat, strain Fischer 344, females, inhaled, site: liver, lesion: hepatocellular adenoma + hepatoblastoma + hepatocellular carcinoma, dosed 104 weeks, study length 104 weeks
  TD50: 30100 mg/kg/day
rat, strain Fischer 344, males, inhaled, site: thyroid gland, lesion: follicular-cell carcinoma, dosed 104 weeks, study length 104 weeks
  TD50: 3550 mg/kg/day

## [Cl][Hg][Cl]
mouse, strain B6C3F1, females, by gavage, site: any site (literature study), lesion: several types, types named in the paper, dosed 103 weeks, study length 104 weeks
  TD50: 5.83 mg/kg/day (inactive)
mouse, strain B6C3F1, females, by gavage, site: lung, lesion: alveolar/bronchiolar adenoma + alveolar/bronchiolar carcinoma, dosed 103 weeks, study length 104 weeks
  TD50: 40.8 mg/kg/day
mouse, strain B6C3F1, males, by gavage, site: kidney, lesion: tubular-cell adenocarcinoma, dosed 103 weeks, study length 104 weeks
  TD50: 240 mg/kg/day
mouse, strain B6C3F1, males, by gavage, site: kidney, lesion: tubule adenoma + tubular-cell adenocarcinoma, dosed 103 weeks, study length 104 weeks
  TD50: 81.6 mg/kg/day
mouse, strain B6C3F1, males, by gavage, site: kidney, lesion: tubule adenoma, dosed 103 weeks, study length 104 weeks
  TD50: 125 mg/kg/day
mouse, strain Charles River CD1, females, in drinking water, site: all sites, lesion: lymphoma and leukemia, combined, dosed 118 weeks, study length 118 weeks
  TD50: 3.58 mg/kg/day (inactive)
mouse, strain Charles River CD1, females, in drinking water, site: any site (literature study), lesion: malignant tumor, dosed 118 weeks, study length 118 weeks
  TD50: 5.55 mg/kg/day (inactive)
mouse, strain Charles River CD1, females, in drinking water, site: any site (literature study), lesion: several types, types named in the paper, dosed 118 weeks, study length 118 weeks
  TD50: 2.42 mg/kg/day (inactive)
mouse, strain Charles River CD1, females, in drinking water, site: lung, lesion: one or several types, types not named, dosed 118 weeks, study length 118 weeks
  carcinogen call: negative (inactive)
mouse, strain Charles River CD1, males, in drinking water, site: any site (literature study), lesion: malignant tumor, dosed 119 weeks, study length 119 weeks
  carcinogen call: negative (inactive)
mouse, strain Charles River CD1, males, in drinking water, site: any site (literature study), lesion: several types, types named in the paper, dosed 119 weeks, study length 119 weeks
  TD50: 3.2 mg/kg/day (inactive)
mouse, strain Charles River CD1, males, in drinking water, site: lung, lesion: one or several types, types not named, dosed 119 weeks, study length 119 weeks
  TD50: 11.2 mg/kg/day (inactive)
rat, strain Fischer 344, females, by gavage, site: forestomach, lesion: squamous-cell papilloma, dosed 103 weeks, study length 104 weeks
  TD50: 51.8 mg/kg/day
[1]
  TD50: 105 mg/kg/day
rat, strain Fischer 344, males, by gavage, site: adrenal medulla, lesion: pheochromocytoma benign, bilateral + pheochromocytoma, benign, dosed 103 weeks, study length 104 weeks
  TD50: 1.56 mg/kg/day
rat, strain Fischer 344, males, by gavage, site: adrenal medulla, lesion: pheochromocytoma benign, bilateral + pheochromocytoma, complex + pheochromocytoma, malignant + pheochromocytoma malignant, bil, dosed 103 weeks, study length 104 weeks
  TD50: 1.6 mg/kg/day
[2]
  TD50: 1.04 mg/kg/day
rat, strain Fischer 344, males, by gavage, site: forestomach, lesion: squamous-cell papilloma, dosed 103 weeks, study length 104 weeks
  TD50: 3.12 mg/kg/day
[3]
  TD50: 10.3 mg/kg/day
rat, strain Fischer 344, males, by gavage, site: testis, lesion: interstitial-cell adenoma, bilateral + interstitial-cell adenoma, dosed 103 weeks, study length 104 weeks
  TD50: 0.825 mg/kg/day
rat, strain Fischer 344, males, by gavage, site: thyroid gland, lesion: follicular-cell adenoma + follicular-cell carcinoma, dosed 103 weeks, study length 104 weeks
  TD50: 5.25 mg/kg/day
rat, strain Fischer 344, males, by gavage, site: thyroid gland, lesion: follicular-cell adenoma, dosed 103 weeks, study length 104 weeks
  TD50: 5.98 mg/kg/day
rat, strain Fischer 344, males, by gavage, site: thyroid gland, lesion: follicular-cell carcinoma, dosed 103 weeks, study length 104 weeks
  TD50: 7.32 mg/kg/day

## CCCCCCc1ccc(O)cc1O
mouse, strain B6C3F1, females, by gavage, site: any site (literature study), lesion: several types, types named in the paper, dosed 102 weeks, study length 104 weeks
  carcinogen call: negative (inactive)
mouse, strain B6C3F1, males, by gavage, site: Harderian gland, lesion: adenoma, NOS + carcinoma, NOS, dosed 102 weeks, study length 104 weeks
  TD50: 368 mg/kg/day
mouse, strain B6C3F1, males, by gavage, site: adrenal medulla, lesion: pheochromocytoma, dosed 102 weeks, study length 104 weeks
  TD50: 519 mg/kg/day
rat, strain Fischer 344, females, by gavage, site: any site (literature study), lesion: several types, types named in the paper, dosed 103 weeks, study length 104 weeks
  carcinogen call: negative (inactive)
[1]
  TD50: 128000 mg/kg/day
[2]
  TD50: 615 mg/kg/day (inactive)
[3]
  TD50: 1530 mg/kg/day
